Measured values taken from US12344618B2, “Heterotricyclic derivative compound and use of same” (HANMI PHARMACEUTICAL CO., LTD., priority 2019, dated 2025).
Like-named read-outs stand apart in the source and are kept apart here.

Experiments:
[1] = Metabolic stability in rat liver microsomes; assay type: in vitro ADME; details: 5 μM compound, 1 mg/mL rat liver microsomes, 37° C., NADPH regenerating system
Experimental: (§1) In order to confirm the metabolic stability of the synthetic compounds in the liver, 5 μM test compound and 1 mg/mL human, dog, rat or mouse liver microsomes were allowed to react with each other at 37° C. in the presence of the NADPH regenerating system for 1 hour. After 1 hour, the reaction was terminated and the supernatant obtained by centrifugation was analyzed by HPLC. With the peak value obtained as the analysis result, the residual amount (%) was calculated using the following equation through the peak value of the test compound after 1 hour of the reaction versus the peak value of the test compound at 0 min. Residual amount (%)=(peak value of test compound after 1 hour of reaction/peak value of test compound at 0 min)×100

RPMI8226 = experiment: Cell growth inhibition test, RPMI8226; assay type: cell-based; details: Homo sapiens, RPMI-8226, 168 h; RPMI8226, culture time 7 days; read-out: Cell growth inhibitory activity (GI50, nM) RPMI8226
Experimental: (§2) In order to confirm the inhibitory effects of the synthetic compounds against the growth of blood cancer cell lines, evaluation was performed against KARPAS 422, RPMI 8226, KMS-11, JeKo-1, MV-4-11, Mino, Pfeiffer, SU-DHL-4, and RS4; 11 cell lines. A test for the Pfeiffer and SU-DHL-4 cell lines was performed by KYinno Co., Ltd., a test for the RS4; 11 cell line was performed by Shanghai Chempartner Co., Ltd., and a test for the Kasumi-1, MV-4-11, MM.1S, KMS-11, JeKo-1, Mino (ATCC), RPMI 8226 (KCLB), and KARPAS 422 (ECACC) cell lines was performed after purchase.
(§3) DMSO at a final concentration of 0.1% or less or a DMSO solution of each of the synthetic compounds was added to media to have the concentration and treatment time described in Table 5 below, and cells were cultured at 37° C. under 5% CO2. Each type of the cultured cells was seeded in 6-well plates or 48-96 well plates, and subculture or medium replacement was performed every 3 to 4 days. Next, the cells were subcultured for a total of 7 to 14 days, and then seeded in 96-well plates. 3 to 5 days before the measurement of the effect, the cells were seeded in 96-well plates, and then the absorbance (Tz) on the day of seeding was measured. The absorbance after the reaction was measured by the plate reader device Synergy NeoAlpha (Biotek) using Cell-Titer-Glo Cell Viability Assay (Promega, G7573) according to the attached manual. Based on the absorbance (Tz) measured on the seeding day and the absorbance of each of the DMSO-treated group (C) and the sample-added group (Ti) measured on the day of effect determination, the percentage of cell proliferation inhibition was calculated according to the following Equation 1. [(Ti−Tz)/(C−Tz)]×100 for concentrations for which Ti≥Tz […] for concentrations for which Ti<Tz. [Equation 1]

MV4-11 = experiment: Cell growth inhibition test, MV4-11; assay type: cell-based; details: Homo sapiens, 240 h; MV4-11, culture time 10 days; read-out: Cell growth inhibitory activity (GI50, nM) MV4-11
Experimental: as §2, §3

RS4;11 = experiment: Cell growth inhibition test, RS4;11; assay type: cell-based; details: Homo sapiens, read-out: Cell growth inhibitory activity (GI50, nM) RS4;11
Experimental: as §2, §3

MM.1S = experiment: Cell growth inhibition test, MM.1S; assay type: cell-based; details: Homo sapiens, MM1.S, 264 h, culture time 11 days, read-out: Cell growth inhibitory activity (GI50, nM) MM.1S
Experimental: as §2, §3

SU-DHL-4 = experiment: Cell growth inhibition test, SU-DHL-4; assay type: cell-based; details: Homo sapiens, read-out: Cell growth inhibitory activity (GI50, nM) SU-DHL-4
Experimental: as §2, §3

[2] = system: KARPAS-422 (EZH2 Y641N mutation); experiment: Cell growth inhibition test, KARPAS-422; assay type: cell-based; details: KARPAS-422, culture time 7 days, read-out: Cell growth inhibitory activity (GI50, nM) KARPAS-422 (EZH2 Y641N mutation)
JeKo-1 = experiment: Cell growth inhibition test, JeKo-1; assay type: cell-based; details: Homo sapiens, 240 h; JeKo-1, culture time 10 days; read-out: Cell growth inhibitory activity (GI50, nM) JeKo-1
Experimental: as §2, §3

Mino = experiment: Cell growth inhibition test, Mino; assay type: cell-based; details: Homo sapiens, 336 h, culture time 14 days, read-out: Cell growth inhibitory activity (GI50, nM) Mino
Experimental: as §2, §3

[3] = Metabolic stability in mouse liver microsomes; assay type: in vitro ADME; details: 5 μM compound, 1 mg/mL mouse liver microsomes, 37° C., NADPH regenerating system
Experimental: as §1

[4] = Mouse pharmacokinetics, oral single dose; assay type: in vivo; details: male, ICR, mouse, plasma, po, 30 mg/kg, mice (ICR, male), oral single dose 30 mg/kg; for AUC: read-out: Area under oral curve (AUC); for half-life: read-out: Half life T1/2 (converted)
Experimental: Pharmacokinetics of the synthetic compounds as EZH2 inhibitors in mice (ICR, 8-week-old, male) were tested.
The oral administration group was maintained in a fasting state from the day before the test to 4 hours after administration of the test compound. On the day of administration of the test compound, the weight of each animal was measured and each synthetic compound was formulated using a selected solvent based on 30 mg/kg (10 mL/kg). Each test compound was administered orally in a single dose, a certain amount of the blood was taken at a predetermined time, plasma was isolated therefrom, and the concentration of each test compound in the plasma was analyzed using LC-MS/MS (Waters UPLC H-Class/Xevo TQ; Waters, USA). Pharmacokinetic coefficients were calculated by a linear-log trapezoidal summation formula using a non-compartment analysis of the Phoenix™ WinNonlin (Certara, USA) program through the plasma concentration curve over time.

Kasumi-1 = experiment: Cell growth inhibition test, Kasumi-1; assay type: cell-based; details: Homo sapiens, 240 h; Kasumi-1, culture time 10 days; read-out: Cell growth inhibitory activity (GI50, nM) Kasumi-1
Experimental: as §2, §3

[5] = system: Pfeiffer (EZH2 A677G mutation); experiment: Cell growth inhibition test, Pfeiffer; assay type: cell-based; details: Homo sapiens, read-out: Cell growth inhibitory activity (GI50, nM) Pfeiffer (EZH2 A677G mutation)
Experimental: as §3, with “Each” for “DMSO at a final concentration of 0.1% or less or a DMSO solution of each of the synthetic compounds was added to media to have the concentration and treatment time described in Table 5 below, and cells were cultured at 37° C. under 5% CO2. Each”

[6] = Metabolic stability in dog liver microsomes; assay type: in vitro ADME; details: 5 μM compound, 1 mg/mL dog liver microsomes, 37° C., NADPH regenerating system
Experimental: as §1

KMS-11 = experiment: Cell growth inhibition test, KMS-11; assay type: cell-based; details: Homo sapiens, 240 h; KMS-11, culture time 10 days; read-out: Cell growth inhibitory activity (GI50, nM) KMS-11
Experimental: as §2, §3

[7] = Metabolic stability in human liver microsomes; assay type: in vitro ADME; details: 5 μM compound, 1 mg/mL human liver microsomes, 37° C., NADPH regenerating system
Experimental: as §1

Compound | Residual amount (%) of test compound after 1 hour of reaction, Rat [1] | GI50 (RPMI8226) | GI50 (MV4-11) | GI50 (RS4;11) | GI50 (MM.1S) | GI50 (SU-DHL-4) | GI50 [2] | GI50 (JeKo-1) | GI50 (Mino) | Residual amount (%) of test compound after 1 hour of reaction, Mouse [3] | AUC [4] | half-life [4] | GI50 (Kasumi-1) | GI50 [5] | Residual amount (%) of test compound after 1 hour of reaction, Dog [6] | GI50 (KMS-11) | Residual amount (%) of test compound after 1 hour of reaction, Human [7] | GI50 ([2]; Homo sapiens, KARPAS-422, 168 h)
Cc1cc(C)c(CN2CCc3c(Br)c4c(c(C)c3C2=O)OC(C)([C@H]2CC[C@H](N(C)C)CC2)O4)c(=O)[nH]1 (single isomer, unassigned) [Compound 49, 9-bromo-6-((4,6-dimethyl-2-oxo-1,2-dihydropyridin-3-yl)methyl)-2-(trans-4-(dimethylamino)cyclohexyl)-2,4-dimethyl-7,8-dihydro-[1,3]dioxolo[4,5-g]isoquinolin-5(6H)-one] | 84% | 6.4 nM | 3.9 nM | 24 nM | 1.4 nM | 11 nM | 1.2 to 9.7 nM | 42 nM | 2 nM | 52% | 9960 ng·h/mL | 2.9 h | 51 nM | 0.21 nM | 74% | 8.1 nM | 67% | 
CCN(c1cc(-c2ccc(CN3CCOCC3)cc2)cc(C(=O)NCc2c(C)cc(C)[nH]c2=O)c1C)C1CCOCC1 [Control A, N-((4,6-dimethyl-2-oxo-1,2-dihydropyridin-3-yl)methyl)-5-(ethyl(tetrahydro-2H-pyran-4-yl)amino)-4-methyl-4′-(morpholinomethyl)-[1,1′-biphenyl]-3-carboxamide] |  | 315 nM | 220 nM | 932 nM | 204 nM | 281 nM |  | 3580 nM | 225 nM |  | 4880 ng·h/mL | 0.6 h | > 1000 nM |  | 14% | 554 nM |  | 
Cc1cc(C)c(CNC(=O)c2cc(Cl)c3c(c2C)O[C@@](C)([C@H]2CC[C@H](N(C)C)CC2)O3)c(=O)[nH]1 [Control B] | 81% | 7.8 nM | 6.1 nM | 62 nM | 2.3 nM | 21 nM |  | 71 nM | 2.5 nM | 50% | 3420 to 5000 ng·h/mL | 1 h | 324 nM | 0.57 nM | 83% | 25 nM | 65% | 1.3 to 15 nM
